Test system: HCV replicon RTVs containing the NS5B region of Con1 or H77 reference and SDM mutants
Assay: PhenoSense HCV NS5B Assay: luciferase replicon resistance test vector inhibitor susceptibility in Huh7 cells
Assay type: cell-based, hepatitis C virus
Conditions: MT:WT RTV mixtures 0-100% mutant; control inhibitor
Protocol: RTV RNA was electroporated into a Huh7 cell line, and electroporated cells were incubated in the absence and presence of serially diluted inhibitors. RNA input was monitored by measuring the amount of luciferase activity produced in the electroporated cells at 4 hours post-electroporation. Luciferase activity is expressed as relative light units (RLU). Replication capacity (RC) was determined by evaluating luciferase activity at 72-96 hours postelectroporation in the absence of inhibitor, relative to RNA input and a control reference replicon RTV (Con1). A replication defective Con1 replicon (Con1 polymerase defective) was utilized to determine assay background (data not shown) Inhibitor susceptibility was determined by evaluating the ability of RTVs to replicate in the absence and presence of inhibitor at 72-96 hours post-electroporation. […]
Assay accuracy was assessed by evaluating the HCV polymerase inhibitor susceptibility of RTVs containing the NS5B region of well-characterized subtype 1a (H77) and 1b (Con1) reference sequences and subtype 1a and 1b reference sequences engineered by site-directed mutagenesis (SDM) to contain mutations that confer reduced susceptibility to inhibitors of HCV RdRp (FIG. 3) Inhibitor susceptibility data (IC50-FC and IC95-FC) were analyzed for concordance with phenotypic data reported in the scientific literature. […]

In the case of interferon [INF], the “susceptibility as a function of the proportion of MT RTV within a mixture” value was “not affected”.

Source: patent publication US20130302782A1, “Methods for the Phenotypic Detection of HCV Inhibitor Resistant Subpopulations” (Laboratory Corporation of America Holdings, priority 2011, published 2013)
